Source: patent US20120251511A1, “COMPOSITION AND PRODUCTS FOR ENABLING THE PRODUCTION OF EQUOL IN VIVO” (priority 2011, published 2012)

What was measured:
[1] = HPLC/EC determination of daidzein and equol levels in blood serum and urine after the BLDG formula; settings: for concentration at 1 day / concentration at 7 day / concentration at 21 day: human, oral; for concentration at 1 day: Day 1, plasma; for concentration at 7 day: Day 7, plasma
Description: The subject's diet was limited to 20 grams of saturated fat per day. The subject also consumed a healthy amount of grains, fruits and vegetables.
Blood serum and urine samples were taken on days 1, 7 and 21 and the samples were sent to an independent laboratory for analysis.
Equol in the blood serum was tested (untreated) as unbound to sex hormone-binding globulin (SHBG).

[2] = in vitro; cited from earlier work
[3] = test system: androgenic alopecia (hair loss); experiment: Observed effects on androgenic alopecia (hair loss); type: in vivo, human; settings: inulin supplements 4 grams daily, one individual
Description: The goal of the first experiment, performed in June 2006, was to investigate the ability for the BLDG formula to show both objective and subjective results. Objective results included blood and urine samples testing for the presence of equol. Subjective results included the documentation of observed effects on androgenic alopecia (hair loss) and acne vulgaris.
The test subject was a person, in good overall health. Subject was physically active, had adequate nutrition and was not taking any drugs or supplements that were known to cause hair loss or acne.
The subject was experiencing a high degree of shedding of the hair from areas of the scalp consistent with male pattern baldness. Miniaturization of the hair follicles on the scalp was noticeable along the hair line, part line and vertex upon close observation. […] Generally, the subject would have been considered a Class II on the Norwood-Hamilton scale, but with some increased vertex thinning more attributable to a Class III.

[4] = Day 21, urine, BLDG formula regimen equivalent to Example 1
[5] = plasma, unbound equol, Mean, BLDG formula regimen equivalent to Example 1
[6] = plasma, unbound equol, ng/ml I, BLDG formula regimen equivalent to Example 1
[7] = plasma, unbound equol, ng/ml II, BLDG formula regimen equivalent to Example 1

O=c1c(-c2ccc(O)cc2)coc2cc(O)ccc12 [Daidzein, 4,7-Dihydroxyisoflavone]
daidzein, Mean [1, 4]: 43974.11 ng/mL | daidzein, ng/ml I [1, 4]: 44246.59 ng/mL | daidzein, ng/ml II [1, 4]: 43701.63 ng/mL | increase in daidzein levels between Day 7 and Day 21 ([1]; blood serum, BLDG formula): 45%

Oc1ccc([C@H]2COc3cc(O)ccc3C2)cc1 [S-equol]
increase in equol concentration between Day 7 and Day 21 ([1]; blood serum, BLDG formula): 3% | concentration at 1 day [1, 5]: 0 ng/mL | concentration at 7 day [1, 5]: 127 ng/mL | concentration at 21 day ([1]; plasma, unbound equol, Mean, Day 21, plasma, BLDG formula regimen equivalent to Example 1): 131 ng/mL | concentration at 1 day [1, 6]: 0 ng/mL | concentration at 7 day [1, 6]: 137 ng/mL | concentration at 21 day ([1]; plasma, unbound equol, ng/ml I, Day 21, plasma, BLDG formula regimen equivalent to Example 1): 122 ng/mL | concentration at 1 day [1, 7]: 0 ng/mL | concentration at 7 day [1, 7]: 117 ng/mL | concentration at 21 day ([1]; plasma, unbound equol, ng/ml II, Day 21, plasma, BLDG formula regimen equivalent to Example 1): 141 ng/mL | concentration at 21 day ([1]; urine, equol, Mean, Day 21, urine, BLDG formula regimen equivalent to Example 1): 638 ng/mL | concentration at 21 day ([1]; urine, equol, ng/ml I, Day 21, urine, BLDG formula regimen equivalent to Example 1): 613 ng/mL | concentration at 21 day ([1]; urine, equol, ng/ml II, Day 21, urine, BLDG formula regimen equivalent to Example 1): 662 ng/mL | blood levels that may be required to fully mitigate DHT at normal levels of circulation in men [2]: 100 ng/mL

inulin
effect of added inulin on BLDG dosage needed [3]: able to cut his BLDG dosage in half
